From ChEMBL document CHEMBL4613205, “Peptide-based and small synthetic molecule inhibitors on PD-1/PD-L1 pathway: A new choice for immunotherapy?” (Eur J Med Chem, 2019)
Bridge positions count the residues as written; N and C are the ends. Square brackets hold non-standard residues; d marks the D form. Peptide text beside a SMILES is read from it. * marks the point of attachment. ξ: configuration not given here. X1 = NC(CO)C(=O)NC(Cc1ccccc1)C(=O)NCCCCN*; ξE = NC(CCC(=O)O)C(=O)O; ξK = NCCCCC(N)C(=O)O

Experiments:
Splenocyte [1] = assay: Antiproliferative activity against mouse splenocytes at 100 nM relative to control; assay type: functional
Splenocyte [2] = assay: Antiproliferative activity against mouse splenocytes relative to control; assay type: functional; design: concentration or dose not given beside the values
[3] = biological target: T1, Programmed cell death 1 ligand 1 (Homo sapiens, UniProt Q9NZQ7); assay: Antagonist activity against PDL1 (unknown origin)
T1 sequence (Q9NZQ7 whole entry): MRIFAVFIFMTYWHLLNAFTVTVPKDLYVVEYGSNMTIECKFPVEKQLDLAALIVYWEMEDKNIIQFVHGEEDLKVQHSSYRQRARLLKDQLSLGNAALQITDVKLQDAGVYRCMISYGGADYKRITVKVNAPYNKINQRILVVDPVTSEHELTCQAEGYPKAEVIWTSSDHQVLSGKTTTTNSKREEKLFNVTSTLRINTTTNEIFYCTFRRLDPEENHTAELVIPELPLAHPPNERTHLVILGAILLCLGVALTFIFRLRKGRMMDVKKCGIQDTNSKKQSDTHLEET

[4] = biological target: Programmed cell death protein 1/Programmed cell death 1 ligand 1 (Homo sapiens, UniProt Q15116+Q9NZQ7); assay: Inhibition of human PD1/PDL1 protein-protein interaction by HTRF assay; assay type: protein-complex assay
Programmed cell death protein 1/Programmed cell death 1 ligand 1, sequence (Q15116 whole entry): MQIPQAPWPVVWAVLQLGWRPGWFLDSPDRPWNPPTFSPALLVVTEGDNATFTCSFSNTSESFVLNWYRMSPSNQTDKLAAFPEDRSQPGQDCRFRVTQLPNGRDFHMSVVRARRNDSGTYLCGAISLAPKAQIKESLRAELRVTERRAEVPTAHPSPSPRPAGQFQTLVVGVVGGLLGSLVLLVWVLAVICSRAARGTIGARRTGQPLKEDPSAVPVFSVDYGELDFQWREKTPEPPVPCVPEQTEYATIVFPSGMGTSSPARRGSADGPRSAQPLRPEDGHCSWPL
Programmed cell death protein 1/Programmed cell death 1 ligand 1, sequence (Q9NZQ7 whole entry): as the sequence (Q9NZQ7 whole entry) above

4T1 = assay: Antitumor activity against mouse 4T1 cells xenografted in mouse assessed as reduction in tumor growth at 3 mg/kg, sc qd after 40 days relative to control; assay type: functional; conditions: 4T1, sc, 960 h, read-out: TGI
B16-F10 = assay: Antitumor activity against mouse B16F10 cells xenografted in mouse assessed as reduction in tumor growth at 5 mg/kg, sc qd after 14 days relative to control; assay type: functional; conditions: 336 h, read-out: TGI
HEK293 = assay: Antiproliferative activity against HEK293 cells; assay type: functional, cell-based; conditions: Homo sapiens
MDA-MB-231 = assay: Antiproliferative activity against human MDA-MB-231 cells; assay type: functional, cell-based
CT26 = assay: Antitumor activity against mouse CT26 cells xenografted in mouse assessed as reduction in tumor growth at 3 mg/kg after 25 days relative to control; assay type: functional; conditions: CT26, 600 h, read-out: TGI
[5] = biological target: T1, Programmed cell death 1 ligand 1; assay: Inhibition of PDL1 (unknown origin)
[6] = biological target: T2, Programmed cell death 1 ligand 2 (Homo sapiens, UniProt Q9BQ51); assay: Inhibition of PDL2 (unknown origin)
T2 sequence (Q9BQ51 whole entry): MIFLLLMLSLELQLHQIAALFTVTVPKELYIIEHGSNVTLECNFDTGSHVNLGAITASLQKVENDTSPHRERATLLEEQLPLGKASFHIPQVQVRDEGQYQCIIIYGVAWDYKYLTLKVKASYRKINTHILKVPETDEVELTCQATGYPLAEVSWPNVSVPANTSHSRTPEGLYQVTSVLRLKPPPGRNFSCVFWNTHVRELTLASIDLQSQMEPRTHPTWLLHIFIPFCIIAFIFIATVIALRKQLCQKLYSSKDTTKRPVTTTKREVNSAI

SMILES: CCCNC(=O)CC[C@H](NC(=O)N[C@H](C(=O)O)[C@@H](C)O)c1nc([C@@H](N)CO)no1
- Activity (Splenocyte [1]): 119%

SMILES: NC(=O)C[C@H](NC(=O)N[C@@H](CO)C(=O)O)c1nc([C@@H](N)CO)no1
- Activity (Splenocyte [2]): 91%

SMILES: Cc1c(-c2ccccc2)cccc1-c1nc2c(s1)CNCC2
- IC50 [3]: < 100 nM

SMILES: Cc1c(/C=C/c2cc(CNC(C)(CO)C(=O)O)ccc2C(F)(F)F)cccc1-c1ccc2c(c1)OCCO2 (configuration not stated)
- IC50 [4]: 18 nM

SMILES: Cc1c(-c2ccccc2)cccc1-c1cn2nc(CNCCO)cnc2n1
- IC50 [3]: < 100 nM

SMILES: CC[C@H](C)[C@H](NC(=O)[C@H](CCC(N)=O)NC(=O)[C@H](C)NC(=O)[C@H](CCCCN)NC(=O)[C@@H]1CCCN1C(=O)[C@H](C)NC(=O)[C@H](CC(C)C)NC(=O)[C@H](CCC(N)=O)NC(=O)[C@@H](NC(=O)[C@@H](NC(=O)[C@H](CCCNC(=N)N)NC(=O)[C@H](Cc1ccccc1)NC(=O)[C@H](CCCCNC(=O)[C@H](Cc1ccccc1)NC(=O)[C@H](CO)NC(=O)[C@H](CCC(=O)O)NC(=O)[C@H](CO)NC(=O)[C@@H](NC(=O)[C@H](CC(N)=O)NC(=O)[C@@H](N)CO)[C@@H](C)O)NC(=O)[C@H](Cc1ccccc1)NC(=O)[C@H](CO)NC(=O)[C@H](CCC(=O)O)NC(=O)[C@H](CO)NC(=O)[C@@H](NC(=O)[C@H](CC(N)=O)NC(=O)[C@@H](N)CO)[C@@H](C)O)C(C)C)[C@@H](C)O)C(=O)N[C@@H](CCCCN)C(=O)N[C@@H](CCC(=O)O)C(N)=O
- inhibition in vivo at 3 mg/kg (4T1): 44%
- inhibition in vivo at 5 mg/kg (B16-F10): 44%
- IC50 (HEK293): 0.72 nM
- IC50 (MDA-MB-231): 0.41 nM

SMILES: N#Cc1c(NC(=O)c2ccc(CNCCO)cn2)cccc1-c1ccccc1
- IC50 [4]: < 10 nM

SMILES: Cc1c(COc2cc(OCc3cncc(C#N)c3)c(CN(C)C(CO)(CO)CO)cc2Cl)cccc1-c1cccc(OCCCN2CCC(F)(F)C2)c1C
- IC50 [4]: 0.5 nM

SMILES: Cc1c(COc2cc(OCc3cncc(C#N)c3)c(CN(C)C(C)(CO)CO)cc2Cl)cccc1-c1ccnc(OCCCN2CCCCC2)c1Cl
- IC50 [4]: < 10 nM

SMILES: N#Cc1cncc(COc2cc(O[C@H]3CCc4c(-c5ccccc5)cccc43)c(Cl)cc2CN[C@@H](CO)C(=O)O)c1
- IC50 [3]: < 100 nM

SMILES: C[C@@H](O)[C@H](NC(=O)[C@H](CC(N)=O)NC(=O)[C@@H](N)CO)C(=O)N[C@@H](CO)C(=O)NC(CCC(=O)NCCCCNC(=O)C(Cc1ccccc1)NC(=O)C(N)CO)C(N)=O (some centres not stated) (H-SNTS[ξE](X1)-NH2)
- inhibition in vivo at 5 mg/kg (B16-F10): 64%

SMILES: NCCCC[C@H](NC(=O)N[C@@H](CC(N)=O)C(=O)NNC(=O)[C@@H](N)CO)C(=O)O
- Activity (Splenocyte [2]): 87%

SMILES: C[C@@H](O)[C@H](NC(=O)N[C@@H](CC(N)=O)C(=O)NNC(=O)[C@@H](N)CO)C(=O)O
- inhibition in vivo at 3 mg/kg (CT26): 46%
- EC50 [5]: 30 nM
- EC50 [6]: 40 nM
- Activity (Splenocyte [1]): 68%

SMILES: Cc1c(-c2ccccc2)cccc1-c1nc2cc(CNCCO)ccc2o1
- IC50 [3]: < 100 nM

SMILES: C[C@@H](O)[C@@H]1NC(=O)C(NC(=O)[C@@H](N)CO)CCC(=O)NCCCCC(C(=O)N[C@@H](CO)C(=O)N[C@@H](Cc2ccccc2)C(N)=O)NC(=O)[C@H](CO)NC1=O (some centres not stated) (H-S[ξE]TS[ξK]SF-NH2; lactam 2-5)
- Activity (Splenocyte [1]): 78%
- inhibition in vivo at 5 mg/kg (B16-F10): 54%

SMILES: NC(=O)C[C@H](N)c1nc([C@@H](N)CO)no1
- Activity (Splenocyte [1]): 93%

SMILES: N#Cc1c(-c2ccc3c(c2)OCCO3)cccc1N1CCC(N[C@H]2C[C@@H](O)C2)CC1
- IC50 [3]: < 100 nM

SMILES: NCCCC[C@H](N)c1nnc([C@H](CC(N)=O)NC(=O)N[C@@H](CCC(=O)O)C(=O)O)o1
- Activity (Splenocyte [2]): 79%

SMILES: O=C(O)C[C@H]1NC(=O)N[C@H](CO)C(=O)NCCOCCOCC(=O)N[C@@H](CO)C(=O)NNC1=O
- Activity (Splenocyte [2]): 92%

SMILES: C[C@@H](O)[C@H](N)c1nnc([C@H](CCC(N)=O)NC(=O)N[C@@H](CO)C(=O)O)o1
- Activity (Splenocyte [2]): 92%

SMILES: O=C(/C=C/c1ccc(O)c(O)c1)O[C@H]1C[C@@](O)(C(=O)O)C[C@H](O)[C@@H]1O
- IC50 [3]: 36600 nM

SMILES: C#CC[C@H](NC(=O)N[C@H](C(=O)O)[C@@H](C)O)c1nc(-c2cnccn2)no1
- Activity (Splenocyte [2]): 92%

SMILES: NC(=O)C[C@H](NC(=O)N[C@@H](CO)C(=O)O)c1nnc(-c2cnccn2)o1
- Activity (Splenocyte [2]): 63%

SMILES: Cc1c(NC(=O)c2cc(CN3CCCC[C@H]3C(=O)O)cn(C)c2=O)cccc1-c1ccccc1
- IC50 [4]: < 100 nM

SMILES: N#Cc1cccc(COc2cc(OCc3cccc(-c4ccccc4)c3Br)c(Cl)cc2CN2CCCC[C@H]2C(=O)O)c1
- IC50 [4]: 800000 nM
